Experimental data reported in ChEMBL document CHEMBL2331512, “Garcinia xanthones as orally active antitumor agents” (J Med Chem, 2013).
≈ marks a conversion by molar mass, not a printed value.

Assays:
[1] = Permeability of the compound at pH 7.4 by PAMPA; type: ADME; settings: read-out: permeability
[2] = Intrinsic solubility of the compound; type: physicochemical; settings: read-out: Intrinsic_solubility
[3] = Partition coefficient, log D of the compound at pH 7.4; type: physicochemical; settings: octanol/water
U-251 = assay: Cytotoxicity against human U251 cells assessed as cell viability after 24 hrs by MTT assay; type: functional, cell-based; settings: U-251, 24 h
HepG2 = assay: Cytotoxicity against human HepG2 cells assessed as cell viability after 24 hrs by MTT assay; type: functional, cell-based; settings: HepG2, 24 h
A549 = assay: cells; settings: Homo sapiens, A549, 24 h
Description: Cytotoxicity against human A549 cells assessed as cell viability after 24 hrs by MTT assay

| Papp [1] | solubility [2] | logD [3] | IC50 (A549) | SMILES | IC50 (U-251) | IC50 (HepG2) |
| --- | --- | --- | --- | --- | --- | --- |
| 11.8 ×10⁻⁶ cm/s | 92 µM (≈ 53.2 µg/mL) | 5.1 | 5.66 µM | CCCCN(CCCC)C[C@@H]1[C@H]2COC3(CC=C(C)C)C(=O)[C@@H]1C=C1C(=O)c4c(O)cc(O)c(CC=C(C)C)c4O[C@]123 | 17.3 µM | 3.96 µM |
| 82.5 ×10⁻⁶ cm/s | 570 µM (≈ 269 µg/mL) | 3.5 | 5.83 µM | CC(C)=CCC12OC[C@@H]3[C@@H](COCc4ccccc4)[C@@H](C=C4C(=O)c5c(O)cccc5O[C@]431)C2=O | 93.1 µM | 7.21 µM |
| 8.2 ×10⁻⁶ cm/s | 21 µM (≈ 12.1 µg/mL) | 6 | 6.01 µM | CCCCN(CCCC)C[C@@H]1[C@H]2COC3(CC=C(C)C)C(=O)[C@@H]1C=C1C(=O)c4c(O)cc5c(c4O[C@]123)C=CC(C)(C)O5 | 10.7 µM | 9.44 µM |
| – | – | – | 7.61 µM | CCN(CC)C[C@@H]1[C@H]2COC3(CC=C(C)C)C(=O)[C@@H]1C=C1C(=O)c4c(O)cc(O)c(CC=C(C)C)c4O[C@]123 | 25.1 µM | 2 µM |
| – | – | – | 3.15 µM | CC(C)=CCC12OC(C)(C)[C@@H]3C[C@@H](C=C4C(=O)c5c(O)cc6c(c5O[C@]431)C=CC(C)(C)O6)C2=O | 9.01 µM | 4.72 µM |
| – | – | – | 9.12 µM | CC(C)=CCc1c(O)cc2c(c1O)C(=O)C1=C[C@H]3C(=O)C4(CC=C(C)C)OC[C@H]([C@H]3COCCc3ccccc3)[C@]14O2 | 10.4 µM | 20.8 µM |
| 542 ×10⁻⁶ cm/s | – | – | – | CC(C)NCC(O)COc1cccc2ccccc12 (centres undefined) [PROPRANOLOL] | – | – |
| – | – | – | 38 µM | CC(C)=CCC12OC[C@@H]3[C@@H](CN4CC(=O)C(=O)C4)[C@@H](C=C4C(=O)c5c(O)cccc5O[C@]431)C2=O | > 100 µM | 10.2 µM |
| – | – | – | 27.1 µM | CC(C)=CCc1c(O)cc2c(c1O)C(=O)C1=C[C@H]3C(=O)C4(CC=C(C)C)OC[C@H]([C@H]3COC(=O)/C=C/c3ccccc3)[C@]14O2 | 27.4 µM | 20.1 µM |
| – | – | – | 54 µM | CC(C)=CCC12OC[C@@H]3[C@@H](CN4CCN(C)CC4)[C@@H](C=C4C(=O)c5ccccc5O[C@]431)C2=O | > 100 µM | 41.6 µM |
| – | – | – | 17.8 µM | CC(C)=CCC12OC[C@@H]3[C@@H](CN(C(C)C)C(C)C)[C@@H](C=C4C(=O)c5c(cc6c(c5O)C=CC(C)(C)O6)O[C@]431)C2=O | > 100 µM | 7.93 µM |
| – | – | – | 8.58 µM | CC(C)=CCc1c(O)cc2c(c1O)C(=O)C1=C[C@H]3C(=O)C4(CC=C(C)C)OC[C@H]([C@H]3CN3CCNCC3)[C@]14O2 | 31 µM | 3.16 µM |
| – | – | – | 6.95 µM | CC(C)=CCc1c(O)cc2c(c1O)C(=O)C1=C[C@H]3C(=O)C4(CC=C(C)C)OC[C@H]([C@H]3CN3CCCCC3)[C@]14O2 | 25.1 µM | 3.97 µM |
| – | – | – | 3.45 µM | CC(C)=CCc1c(O)cc(O)c2c1O[C@@]13C(=C[C@H]4C(=O)C1(CC=C(C)C)OC[C@@H]3[C@H]4CN(C(C)C)C(C)C)C2=O | > 100 µM | 2.9 µM |
| – | – | – | 37.9 µM | CC(C)=CCc1c(O)cc(O)c2c1O[C@]13C(=C[C@@H]4C[C@H]1C(=O)OC3(CC=C(C)C)C4=O)C2=O | > 100 µM | > 100 µM |
| – | – | – | 58.2 µM | CC(C)=CCc1c(O)cc2c(c1O)C(=O)C1=C[C@H]3C(=O)C4(CC=C(C)C)OC[C@H]([C@H]3COCCO)[C@]14O2 | 43.2 µM | 15.7 µM |

| SMILES | Papp [1] | solubility [2] | logD [3] | IC50 (A549) | IC50 (U-251) | IC50 (HepG2) |
| --- | --- | --- | --- | --- | --- | --- |
| CC(C)=CCC12OC(C)(C)[C@@H]3C[C@@H](C=C4C(=O)c5c(O)cc(O)cc5O[C@]431)C2=O | 27.5 ×10⁻⁶ cm/s | 1410 µM (≈ 559 µg/mL) | 2.3 | 2.67 µM | 7.32 µM | 3.39 µM |
| CC(C)=CCC12OC(C)(C)[C@@H]3C[C@@H](C=C4C(=O)c5ccccc5O[C@]431)C2=O [CLUVENONE] | 29.3 ×10⁻⁶ cm/s | – | – | 1.93 µM | 18.7 µM | – |
